# Measured values published in paper PMC3656107, “Polymorphisms in the F8 Gene and MHC-II Variants as Risk Factors for the Development of Inhibitory Anti-Factor VIII Antibodies during the Treatment of Hemophilia A: A Computational Assessment” (PLoS Computational Biology, 2013).
# Where “and” joins values, the source holds several entries; their conditions need not be identical. Identical values can stand only once.
# Tests used:
# MHC-II DRB1*03:01 [1] = biological target: T1, MHC-II DRB1*03:01 (Homo sapiens, UniProt P01903+P01911, A100K/A102G/A103R/A169T/F55Y/I96L/K41T/L162R/M171V/P40S/Q125H/Q178H/Q39Y/R42S/S66N/T106N/T262R/W38E/Y61H); experiment: Cell-free REVEAL class II binding assay; details: signal of test peptide as percentage of allele-specific positive control peptide, fluorescence, conformation-specific monoclonal antibody
# T1 sequence (P01903 26-254 limits assumed, other chains not shown): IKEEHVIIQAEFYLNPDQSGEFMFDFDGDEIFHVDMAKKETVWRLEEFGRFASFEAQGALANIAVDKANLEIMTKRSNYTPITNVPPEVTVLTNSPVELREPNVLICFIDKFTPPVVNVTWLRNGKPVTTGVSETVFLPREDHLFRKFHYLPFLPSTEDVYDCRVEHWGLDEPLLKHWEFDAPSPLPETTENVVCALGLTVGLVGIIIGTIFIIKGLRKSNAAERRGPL
# Source text: (§1) We used a proprietary high throughput, REVEAL binding assay (ProImmune, www.proimmune.com) to estimate the binding of individual test peptides to the following MHC-II variants: DRB1*03:01, DRB1*04:01, DRB1*07:01, DRB1*11:01, DRB1*15:01 and DRB1*15:03 [28]. Detection of a peptide binding to each MHC-II protein is based on the presence or absence of the native conformation of the MHC-peptide complex. The peptide-MHC-II complex is detected by an increase in a fluorescence signal due to the binding of a specific monoclonal antibody. Each test-peptide is given a score relative to a positive control peptide, which is a known T-cell epitope for that MHC-II molecule. The score is reported quantitatively as a percentage of the signal generated by the test peptide compared with the positive control peptide. Assay performance is evaluated by including in each set of measurements an intermediate control peptide which is known to bind the MHC-II molecule but with a lower affinity than the positive control peptide. Note that the positive control peptide used to determine the binding score is different from the positive control peptides depicted in the figures, which are known T-cell epitopes identified in the FVIII molecule.
# MHC-II DRB1*04:01 [2] = biological target: T2, MHC-II DRB1*04:01 (Homo sapiens, UniProt P01903+P01911, A100K/A169T/F76Y/I96L/K127E/L162R/M171V/N62H/P40V/Q125Y/R42H/S133A/S149N/S66Y/V115G/V209L/W38E); experiment: Cell-free REVEAL class II binding assay; details: signal of test peptide as percentage of allele-specific positive control peptide, fluorescence, conformation-specific monoclonal antibody
# Source text: as §1
# MHC-II DRB1*07:01 [3] = biological target: T3, MHC-II DRB1*07:01 (Homo sapiens, UniProt P01903+P01911, A100R/A102G/A103Q/D57E/D86V/E43K/F76Y/K127E/L162R/M171V/P40G/Q125H/Q99D/R33Q/R42Y/R54Q/S133A/S66F/T210M/V115G/Y107V/Y59L/Y89S); experiment: Cell-free REVEAL class II binding assay; details: signal of test peptide as percentage of allele-specific positive control peptide, fluorescence, conformation-specific monoclonal antibody
# Source text: as §1
# MHC-II DRB1*11:01 [4] = biological target: T4, MHC-II DRB1*11:01 (Homo sapiens, UniProt P01903+P01911, A100R/A169T/A87E/I96F/K41T/L162R/M171V/P40S/Q125H/Q178H/Q39Y/Q99D/R42S/S66Y/T262R/V115G/W38E); experiment: Cell-free REVEAL class II binding assay; details: signal of test peptide as percentage of allele-specific positive control peptide, fluorescence, conformation-specific monoclonal antibody
# T4 sequence (P01903 26-254 limits assumed, other chains not shown): as above
# Source text: as §1
# MHC-II DRB1*15:01 [5] = biological target: T5, MHC-II DRB1*15:01 (Homo sapiens, UniProt P01903+P01911); experiment: Cell-free REVEAL class II binding assay; details: signal of test peptide as percentage of allele-specific positive control peptide, fluorescence, conformation-specific monoclonal antibody
# T5 construct: purchased ProImmune
# Source text: as §1
# MHC-II DRB1*15:03 [6] = biological target: T6, MHC-II DRB1*15:03 (Homo sapiens, UniProt P01903+P01911, Y59H); experiment: Cell-free REVEAL class II binding assay; details: signal of test peptide as percentage of allele-specific positive control peptide, fluorescence, conformation-specific monoclonal antibody
# T6 construct: purchased ProImmune
# T6 sequence (P01903 26-254, other chains not shown): as the sequence (P01903 26-254 limits assumed, other chains not shown) above
# Source text: as §1
# MHC-II DRB1*03:01 [7] = biological target: T1, MHC-II DRB1*03:01; experiment: Cell-free REVEAL class II stability assay; details: half-life of peptide-MHC-II complex (h, capped at 120) x Binding Score / 100, conformational ELISA
# Procedure: (§2) We measured the half-life of each peptide-MHC-II complex using REVEAL peptide-MHC affinity assays developed by ProImmune Ltd. (Oxford, UK). On-rates of peptides were measured over a 96-hr period at 10°C. A unique positive control peptide was used for each MHC-II allele. Samples of assembling peptide-MHC complexes were taken at defined time points and snap-frozen in liquid nitrogen prior to analysis. Assembly of peptide-MHC complexes was detected using a conformational ELISA involving an anti-HLA antibody. On-rates were calculated by fitting data to a one-phase association curve: [drawing 1] To determine the off-rates of the peptides, samples of dissociating complexes were taken at defined time points and frozen in liquid nitrogen prior to analysis. Percent denaturation of peptide-MHC complexes was also detected using a conformational ELISA. Off-rates were calculated by fitting data to a one-phase dissociation curve: [drawing 2] On- and off-rate half-life values (t1/2) were calculated from the rate constant (k) using the following equation: [drawing 3] To obtain a normalized stability score, the half-life values were multiplied by the Binding Score (see above) and divided by 100.
# MHC-II DRB1*04:01 [8] = biological target: T2, MHC-II DRB1*04:01; experiment: Cell-free REVEAL class II stability assay; details: half-life of peptide-MHC-II complex (h, capped at 120) x Binding Score / 100, conformational ELISA
# Procedure: as §2
# MHC-II DRB1*07:01 [9] = biological target: T3, MHC-II DRB1*07:01; experiment: Cell-free REVEAL class II stability assay; details: half-life of peptide-MHC-II complex (h, capped at 120) x Binding Score / 100, conformational ELISA
# Procedure: as §2
# MHC-II DRB1*11:01 [10] = biological target: T4, MHC-II DRB1*11:01; experiment: Cell-free REVEAL class II stability assay; details: half-life of peptide-MHC-II complex (h, capped at 120) x Binding Score / 100, conformational ELISA
# Procedure: as §2
# MHC-II DRB1*15:01 [11] = biological target: T5, MHC-II DRB1*15:01; experiment: Cell-free REVEAL class II stability assay; details: half-life of peptide-MHC-II complex (h, capped at 120) x Binding Score / 100, conformational ELISA
# Procedure: as §2
# MHC-II DRB1*15:03 [12] = biological target: T6, MHC-II DRB1*15:03; experiment: Cell-free REVEAL class II stability assay; details: half-life of peptide-MHC-II complex (h, capped at 120) x Binding Score / 100, conformational ELISA
# Procedure: as §2
Sequence,Binding Score (MHC-II DRB1*03:01 [1]),Binding Score (MHC-II DRB1*04:01 [2]),Binding Score (MHC-II DRB1*07:01 [3]),Binding Score (MHC-II DRB1*11:01 [4]),Binding Score (MHC-II DRB1*15:01 [5]),Binding Score (MHC-II DRB1*15:03 [6]),Stability Index (MHC-II DRB1*03:01 [7]),Stability Index (MHC-II DRB1*04:01 [8]),Stability Index (MHC-II DRB1*07:01 [9]),Stability Index (MHC-II DRB1*11:01 [10]),Stability Index (MHC-II DRB1*15:01 [11]),Stability Index (MHC-II DRB1*15:03 [12])
"AHRTPMPKIQNVSSS [synthetic wild type FVIII 15 mer peptide, region of ns-SNP R776G]",0.0%,1.3%,0.0%,0.2%,0.0%,0.4%,0.0,0.1,0.0,0.0,0.1,0.1
ASEGAEYDDQTSQRE [synthetic wild type FVIII 15 mer peptide],0.0%,0.0%,0.0%,0.0%,0.0%,0.0%,0.0,0.0,0.0,0.0,0.0,0.0
AVGVSYWKASEGAEY [synthetic wild type FVIII 15 mer peptide],0.0%,2.0%,0.0%,0.3%,17.0%,0.1%,0.0,0.4,0.0,0.0,1.0,0.0
AWRPQVNNPKEWLQV [synthetic wild type FVIII 15 mer peptide],0.0%,17.7%,0.0%,0.1%,0.5%,0.2%,0.0,10.2,0.0,0.0,0.6,0.1
"DGAYAPVLQDFRSLN [synthetic wild type FVIII 15 mer peptide, region of ns-SNP D1241E]",11.1%,0.7%,0.1%,0.2%,0.0%,0.1%,2.0,0.1,0.0,0.0,0.0,0.0
"DIEKTDPWFAHRTPM [synthetic wild type FVIII 15 mer peptide, region of ns-SNP R776G]",0.0%,7.6%,0.0%,7.3%,2.6%,0.1%,0.0,0.4,0.0,0.2,0.2,0.0
"EWLQVDFQKTMKVTG [synthetic wild type FVIII 15 mer peptide, region of ns-SNP M2238V]",57.0% and 65.6%,26.4% and 28.1%,0.1% and 0.2%,157.4% and 152.7%,–,24.1% and 17.6%,33.3 and 31.3,4.8 and 5.4,0.1 and 0.2,16.4 and 16.2,–,2.3 and 1.6
NPPIIARYIRLHPTH [synthetic wild type FVIII 15 mer peptide],0.4%,5.0%,0.2%,76.5%,–,15.2%,0.0,3.1,0.2,6.3,1374.9,18.2
"PKEWLQVDFQKTMKV [synthetic wild type FVIII 15 mer peptide, region of ns-SNP M2238V]",36.8% and 60.5%,5.1% and 4.1%,0.0%,8.6% and 4.2%,0.4% and 0.9%,0.0%,–,0.3 and 0.2,0.0,0.3 and 0.2,–,0.0
